In patent publication US7749982B2, “Complex containing mequitazine, a cyclodextrin and an interaction agent” (Pierre Fabre Medicament, priority 2004, dated 2010):

Tests used:
[1] = Bioavailability of mequitazine administered by oral route; settings: in vivo
Source text: As for many pharmaceutically active ingredients, the absorption of mequitazine administered by oral route takes place in the intestine. […] A very small portion of the mequitazine ingested is in solubilized form, and thus it is absorbed with difficulty through the intestinal barrier.

[2] = Mequitazine solubilization test (2 g/l in water, HPLC assay); type: physicochemical
Experimental: In the sense of the present invention, “rate of solubilization” means the percentage of solubilized mequitazine after stirring a mixture of water and mequitazine for 15 minutes at 37° C. A mixture of 2 g/l of mequitazine in water is usually used to measure this rate. This solubilization can be measured by a solubilization test as indicated below.
The mequitazine content in the dissolution solutions is measured by HPLC:
In a 100 ml Erlenmeyer flask, place a test sample equivalent to 100 mg of mequitazine. Add 50 ml of ultrapure water. […] Place under magnetic stirring at 400 rpm in a water bath at 37° C.±2° C. Remove a 2 ml sample under magnetic stirring at 15 minutes. Filter the sample on a 0.45 μm Gelman GHP Acrodisc polypropylene filter. The solution must be limpid. Dilute the sample to 1/200 in a phase: water/acetonitrile (50/50).
Deduce concentration X in μg/ml by following the regression line of the controls.
Calculate the concentration in μg/ml of solubilized mequitazine by multiplying by the inverse of the dilution made (i.e., 200).
The rate of solubility of mequitazine is calculated by dividing the concentration of solubilized mequitazine by the total concentration of mequitazine in the starting solution. […]
The solubility and the rates of solubilization of mequitazine only or mequitazine in physical mixtures are measured as indicated above in the “mequitazine solubilization test”. […]

- bioavailability [1]: ~0.3%
- solubility (in words) ([2]; acid pH range from 2 to 6): high solubility
- solubility (in words) ([2]; pH 9): very low solubility
Structure (SMILES): c1ccc2c(c1)Sc1ccccc1N2CC1CN2CCC1CC2 (stereo not drawn) [mequitazine]
